Laboratory results from US20250049776A1, “AUTOPHAGY INDUCING COMPOUNDS AND USES THEREOF, IN PARTICULAR FOR A SYSTEMIC TREATMENT OF DISEASES AND CONDITIONS” (Samsara Therapeutics Inc., priority 2021, published 2025).
Where two headings read alike, the source gives them in different places.

System: Human osteosarcoma U20S cells
Assay: Assay to measure lysosome and autolysosome formation (acidic vesicle formation, LysoView/LysoTracker staining)
Assay type: cell-based
Settings: U2OS cells, concentration of 0.8 μM; for activation at 0.8 µM: Homo sapiens
Description: Lysosomes play a fundamental role in the autophagic pathway by fusing with autophagosomes and creating ‘autolysosomes’ in order to digest their contents. Stimulation of lysosome and autolysosome formation by a compound is indicative of a stimulation of autophagy. The ability of compounds to stimulate lysosome and autolysosome formation, and thus autophagy, in live cells was assessed via fluorescent microscopy using various fluorescent stains for labelling and tracking acidic organelles (including lysosomes and autolysosomes) such as: LysoView™ 650 (70059 and 70059-T, Biotium), LysoViewTM633 (70058 and 70058-T, Biotium) and LysoTracker™ Deep Red (L12492, ThermoFisher Scientific). The cellular phenotype was quantitatively assessed for the induction of acidic vesicle formation and compared to a non-treated control, thus providing a measure of the ability of the compound under investigation to stimulate autophagy.
Representative procedure using LysoView™633 dye or LysoTracker™ Deep Red dye: Human osteosarcoma U20S cells (40,000 cells/well) were seeded in a 24 well glass bottom plate (Sensoplate, Greiner Bio-One) and were incubated overnight in a humidified atmosphere at 37° C. and 5% CO2. Cells were grown in DMEM (Gibco) supplemented with 10% Fetal Bovine Serum (FBS) and 100 units/ml penicillin and 100 μg/ml streptomycin (Invitrogen). After the attachment period, cells were treated with different compounds of interest (at various concentrations in DMSO) or DMSO (non-treated control) in cell culture medium and were incubated for 24 hours. Compound-containing medium was removed and cells were incubated with pre-warmed cell culture medium containing 1× LysoView™ 633 (70058 and 70058-T, Biotium) or 50 nM LysoTracker™ Deep Red (L12492, ThermoFisher Scientific) for 45 minutes at 37° C. Finally, cell nuclei were stained for 10 minutes using Hoechst 33342 (1 μg/mL) and then the medium was replaced with fresh medium. The 24 well plate was then fitted into a heated stage on the microscope and cells maintained at 37° C. Images were captured using appropriate filter set for Cy5 and DAPI detection with the EVOS M7000 Microscope (ThermoFisher Scientific). The cellular phenotype was visually assessed for the induction of acidic vesicle formation relative to the non-treated control; multiple images were acquired and analyzed using ImageJ or Cell Profiler.

[1] = read-out: Activity (percentage increase in acidic vesicle formation over the DMSO-treated control), Table 2
[2] = read-out: Activity (percentage increase in acidic vesicle formation), Table 2a Preferred compounds

Row | Compound | activation at 0.8 µM [1] | activation at 0.8 µM [2] | Activity (percentage increase in acidic vesicle formation), Table 2b More preferred compounds
1 | O=C(c1csc(-c2cnn(-c3ccccc3)c2)n1)N1C[C@H]2C[C@@H]1CN2 [Compound 326, (1R,4R)-2-[2-(1-phenyl-1H-pyrazol-4-yl)-1,3-thiazole-4-carbonyl]-2,5-diazabicyclo[2.2.1]heptane] | 50 to 100% |  | 
2 | CC(C)N(C(=O)c1csc(-c2cnn(-c3ccccc3)c2)n1)[C@H]1[C@@H]2CNC[C@@H]21 [Compound 318, N-[(1R,5S,6S)-3-azabicyclo[3.1.0]hexan-6-yl]-2-(1-phenyl-1H-pyrazol-4-yl)-N-(propan-2-yl)-1,3-thiazole-4-carboxamide] | > 100% |  | 
3 | CC1CCCN(C(=O)c2csc(-c3cnn(-c4ccccc4)c3)n2)C1CN (centres unmarked) [Compound 153, 1-{3-methyl-1-[2-(1-phenyl-1H-pyrazol-4-yl)-1,3-thiazole-4-carbonyl]piperidin-2-yl}methanamine] | 10 to 30% |  | 
4 | CCCN(C(=O)c1cc(-c2cnn(-c3ccccc3)c2)c[nH]1)C1CCNC1 (centres unmarked) [Compound 123, 4-(1-phenyl-1H-pyrazol-4-yl)-N-propyl-N-(pyrrolidin-3-yl)-1H-pyrrole-2-carboxamide] | > 100% | 50 to 100% | ++++ (a percentage increase in acidic vesicle of greater than 100% over the DMSO-treated control)
5 | CCCN(C(=O)c1csc(-c2cnn(-c3cccc(OC(F)(F)F)c3)c2)n1)[C@H]1CCNC1 [Compound 25, N-propyl-N-[(3S)-pyrrolidin-3-yl]-2-{1-[3-(trifluoromethoxy)phenyl]-1H-pyrazol-4-yl}-1,3-thiazole-4-carboxamide] | 10 to 30% |  | 
6 | CC(C)N(C(=O)c1csc(-c2cnn(-c3ccccc3)c2)n1)[C@@H]1CCNC1 [Compound 312, 2-(1-phenyl-1H-pyrazol-4-yl)-N-(propan-2-yl)-N-[(3R)-pyrrolidin-3-yl]-1,3-thiazole-4-carboxamide] | 50 to 100% |  | 
7 | CCCN(C(=O)c1csc(-c2cnn(-c3cccc(OC)c3)c2)n1)[C@@H]1CCNC1 [Compound 56, 2-[1-(3-methoxyphenyl)-1H-pyrazol-4-yl]-N-propyl-N-[(3R)-pyrrolidin-3-yl]-1,3-thiazole-4-carboxamide] | 10 to 30% |  | 
8 | NCCNC(=O)c1csc(-c2cnn(-c3ccccc3)c2)n1 [Compound 162, N-(2-aminoethyl)-2-(1-phenyl-1H-pyrazol-4-yl)-1,3-thiazole-4-carboxamide] | 10 to 30% |  | 
9 | CCCN(C(=O)c1csc(-c2cnn(-c3ccc(Cl)cc3)c2)n1)[C@@H]1CCNC1 [Compound 41, 2-[1-(4-chlorophenyl)-1H-pyrazol-4-yl]-N-propyl-N-[(3R)-pyrrolidin-3-yl]-1,3-thiazole-4-carboxamide] | 10 to 30% |  | 
10 | CCCN(C(=O)c1csc(-c2cnn(-c3ccccc3C)c2)n1)[C@H]1CCNC1 [Compound 87, 2-[1-(2-methylphenyl)-1H-pyrazol-4-yl]-N-propyl-N-[(3S)-pyrrolidin-3-yl]-1,3-thiazole-4-carboxamide] | 10 to 30% |  | 
11 | CCCN(C(=O)c1csc(-c2cnn(-c3cccc(OC)c3)c2)n1)[C@H]1CCNC1 [Compound 51, 2-[1-(3-methoxyphenyl)-1H-pyrazol-4-yl]-N-propyl-N-[(3S)-pyrrolidin-3-yl]-1,3-thiazole-4-carboxamide] | 30 to 50% |  | 
12 | CCCN(C(=O)c1ccc(-c2cnn(-c3ccccc3)c2)[nH]1)[C@@H]1CCNC1 [Compound 94, 5-(1-phenyl-1H-pyrazol-4-yl)-N-propyl-N-[(3R)-pyrrolidin-3-yl]-1H-pyrrole-2-carboxamide] | > 100% | 50 to 100% | ++++ (a percentage increase in acidic vesicle of greater than 100% over the DMSO-treated control)
13 | CCCN(C(=O)c1csc(-c2cnn(-c3cccc(C)c3)c2)n1)[C@@H]1CCNC1 [Compound 29, 2-[1-(3-methylphenyl)-1H-pyrazol-4-yl]-N-propyl-N-[(3R)-pyrrolidin-3-yl]-1,3-thiazole-4-carboxamide] | 30 to 50% |  | 
14 | CCCN(C(=O)c1ccc(-c2cnn(-c3ccccc3)c2)o1)[C@H]1CCNC1 [Compound 98, 5-(1-phenyl-1H-pyrazol-4-yl)-N-propyl-N-[(3S)-pyrrolidin-3-yl]furan-2-carboxamide] | 50 to 100% | 50 to 100% | 
15 | NCCCCCNC(=O)c1cc(-c2cnn(-c3ccccc3)c2)cs1 [Compound 17, N-(5-aminopentyl)-4-(1-phenyl-1H-pyrazol-4-yl)thiophene-2-carboxamide] | 10 to 30% |  | 
16 | NCCOCCNC(=O)c1ccc(-c2cnn(-c3ccccc3)c2)o1 [Compound 101, N-[2-(2-aminoethoxy)ethyl]-5-(1-phenyl-1H-pyrazol-4-yl)furan-2-carboxamide] | 30 to 50% |  | 
17 | NCCOCCNC(=O)c1cc(-c2cnn(-c3ccccc3)c2)cs1 [Compound 110, N-[2-(2-aminoethoxy)ethyl]-4-(1-phenyl-1H-pyrazol-4-yl)thiophene-2-carboxamide] | 50 to 100% | 50 to 100% | 
18 | NC1CN(C(=O)c2csc(-c3cnn(-c4ccccc4)c3)n2)C1 [Compound 124, 1-[2-(1-phenyl-1H-pyrazol-4-yl)-1,3-thiazole-4-carbonyl]azetidin-3-amine] | 50 to 100% | 50 to 100% | 
19 | CCCN(C(=O)c1csc(-c2ccc(-c3ccccc3)s2)n1)[C@@H]1CCNC1 [Compound 70, 2-(5-phenylthiophen-2-yl)-N-propyl-N-[(3R)-pyrrolidin-3-yl]-1,3-thiazole-4-carboxamide] | 30 to 50% |  | 
20 | CCCN(C(=O)c1csc(-c2cnn(-c3ccc(Cl)cc3)c2)n1)[C@H]1CCNC1 [Compound 40, 2-[1-(4-chlorophenyl)-1H-pyrazol-4-yl]-N-propyl-N-[(3S)-pyrrolidin-3-yl]-1,3-thiazole-4-carboxamide] | 10 to 30% |  | 
21 | CCCN(C(=O)c1csc(-c2cnn(-c3cccc(Cl)c3)c2)n1)[C@H]1CCNC1 [Compound 31, 2-[1-(3-chlorophenyl)-1H-pyrazol-4-yl]-N-propyl-N-[(3S)-pyrrolidin-3-yl]-1,3-thiazole-4-carboxamide] | 10 to 30% |  | 
22 | CC(C)N(C(=O)c1ccc(-c2cnn(-c3ccccc3)c2)[nH]1)C1CCNCC1 [Compound 5, 5-(1-phenyl-1H-pyrazol-4-yl)-N-(piperidin-4-yl)-N-(propan-2-yl)-1H-pyrrole-2-carboxamide] | 30 to 50% |  | 
23 | O=C(NCC1CCNC1)c1csc(-c2cnn(-c3ccccc3)c2)n1 (centres unmarked) [Compound 179, 2-(1-phenyl-1H-pyrazol-4-yl)-N-[(pyrrolidin-3-yl)methyl]-1,3-thiazole-4-carboxamide] | 30 to 50% |  | 
24 | CCCN(C(=O)c1ccc(-c2cnn(-c3ccccc3)c2)[nH]1)[C@H]1CCNC1 [Compound 93, 5-(1-phenyl-1H-pyrazol-4-yl)-N-propyl-N-[(3S)-pyrrolidin-3-yl]-1H-pyrrole-2-carboxamide] | > 100% | 50 to 100% | ++++ (a percentage increase in acidic vesicle of greater than 100% over the DMSO-treated control)
25 | O=C(NC1C[C@@H]2C[C@H]1CN2)c1csc(-c2cnn(-c3ccccc3)c2)n1 (stereo partly drawn) [Compound 327, N-[(1S,4S)-2-azabicyclo[2.2.1]heptan-5-yl]-2-(1-phenyl-1H-pyrazol-4-yl)-1,3-thiazole-4-carboxamide] | 30 to 50% |  | 
26 | NC1CCCN(C(=O)c2csc(-c3cnn(-c4ccccc4)c3)n2)C1 (centres unmarked) [Compound 167, 1-[2-(1-phenyl-1H-pyrazol-4-yl)-1,3-thiazole-4-carbonyl]piperidin-3-amine] | 10 to 30% |  | 
27 | Cc1ccccc1-n1cc(-c2nc(C(=O)N3CCC[C@@H]3CN)cs2)cn1 [Compound 86, 1-[(2R)-1-{2-[1-(2-methylphenyl)-1H-pyrazol-4-yl]-1,3-thiazole-4-carbonyl}pyrrolidin-2-yl]methanamine] | 30 to 50% |  | 
28 | CCCN(C(=O)c1csc(-c2cnn(-c3cccc(OC(F)(F)F)c3)c2)n1)[C@@H]1CCNC1 [Compound 26, N-propyl-N-[(3R)-pyrrolidin-3-yl]-2-{1-[3-(trifluoromethoxy)phenyl]-1H-pyrazol-4-yl}-1,3-thiazole-4-carboxamide] | 30 to 50% |  | 
29 | CCCN(C(=O)c1csc(-c2cnn(-c3cccc(F)c3)c2)n1)[C@@H]1CCNC1 [Compound 53, 2-[1-(3-fluorophenyl)-1H-pyrazol-4-yl]-N-propyl-N-[(3R)-pyrrolidin-3-yl]-1,3-thiazole-4-carboxamide] | 10 to 30% |  | 
